This is an account of results in US20250332265A1, “PSMA TARGETED CONJUGATE COMPOUNDS AND USES THEREOF” (priority 2021, published 2025).

The target of one data set is T1, human liver cathepsin B (Homo sapiens, UniProt P07858).
T1 construct: purchased Anthens Research and Technology; host or cells: human liver (tissue-derived enzyme)
The experiment in a line: Enzymatic cleavage by cathepsin B, Example 1. To be noted: 2 μM conjugate, 37° C., HPLC. In kind it is in vitro ADME. As for the experimental part:
PSMA-1-VcMMAE-Cy5.5 or PSMA-1-McMMAE-Cy5.5 was added to 500 μL of activated human liver cathepsin B (Anthens Research and Technology) solution to a final concentration of 2 μM and incubated at 37° C. At different time intervals, 40 µL of the solution was taken out into tubes loaded with 1 μL of 1 mM E64 protease inhibitor. The mixture was vortexed and then stored at −80° C. for future HPLC analysis to assess degradation of PSMA-1-VcMMAE-Cy5.5 or PSMA-1-McMMAE-Cy5.5. Studies were performed in triplicate.

Data set [1] is described as follows: Stability of conjugates incubated with PBS, Example 1. In kind it is physicochemical. The following applies: without enzyme. As for the experimental part:
To investigate if PSMA-targeted drug conjugates were cleavable by cathepsin B, the two conjugates were incubated with or without the enzyme and chromatographed by HPLC. When the conjugates were incubated with PBS, both PSMA-1-VcMMAE-Cy5.5 and PSMA-1-McMMAE-Cy5.5 were stable (FIG. 1D).

Data set [2] concerns PSMA-positive PC3pip cells. Description: In vitro cytotoxicity assay (CCK-8), PC3pip. In kind it is cell-based, human. The method, then:
(§1) Cells (1,000/well) were seeded in 96-well culture plates the day before treatment. Cells were incubated with various concentrations of drugs for 72 hours and cell viability evaluated by CCK-8 (Dojindo). The concentration required to reach 50% of cell proliferation was determined (IC50) by GraphPad Prism 3.0.

Data set [3] deals with PSMA-negative PC3flu cells. Description: In vitro cytotoxicity assay (CCK-8), PC3flu. In kind it is cell-based, human. As for the experimental part: as §1
For data set [4], the system named is PSMA receptor expressed on the PC3pip cells. Description: In vitro cellular uptake studies, Example 1. In kind it is cell-based, human. To be noted: 50 nM, 4 hours. The method, then: PC3pip and PC3flu cells were seeded in p-Slide 8-Well Chamber Slide (ibidi GmbH) at 2,000 cells/well. When cells grew to 70% confluency, PSMA-1-VcMMAE-Cy5.5 or PSMA-1-McMMAE-Cy5.5 conjugations were added at 50 nM and incubated at 37° C. for 4 hours. Cells were washed with PBS and stained with DAPI and LysoOrange (Abcam) for 30 minutes at 37° and 5% CO2, after which they were washed again with PBS and filled with fresh medium. Selectivity was determined by including 20-fold excess of the PSMA-1 ligand. The uptake and localization of the drug conjugates were visualized under a Leica HyVolution SP8 confocal microscope at 40×.

Data set [5] has as its system α-tubulin in PC3pip and PC3flu cells. The experiment in a line: Immunofluorescence analysis of alpha-tubulin. In kind it is cell-based, human. The following applies: 5 nM, 24 hours. The method, then: Cells on coverslips at about 70% confluency were incubated with 5 nM of MMAE, PSMA-1-VcMMAE-Cy5.5 or PSMA-1-McMMAE-Cy5.5 for 24 hours. Cells were washed and fixed with 4% paraformaldehyde for 10 minutes, permeabilized with 0.1% Triton™ X-100 for 10 minutes, and blocked with 1% BSA for 1 hour at room temperature. Alpha-tubulin (B5-1-2) Alexa Fluor 488 Mouse Monoclonal Antibody (Invitrogen) was then added at 2 μg/mL in 0.1% BSA and incubated for 3 hours at room temperature. Cells were counterstained with DAPI, mounted with Fluor-Mount aqueous mounting solution, and observed under Leica DM4000B fluorescence microscopy at 40×.

The test system of another data set is PC3pip and PC3flu tumors. Description: In vivo NIR imaging studies, Example 1. Set-up: species or system mice. To be noted: 40 nmol/kg i.v., fluorescence imaging. The method, then: Under guidelines of the animal care and use committee at Case Western Reserve University (IACUC #150033) 6 to 8-week old male Balb/cathymic nude mice were implanted subcutaneously with 1×10^6 of PC3flu and PC3pip on the left and right dorsum respectively. Mice received 40 nmol/kg of PSMA-1-VcMMAE-Cy5.5 or PSMA-1-McMMAE-Cy5.5 in PBS via tail vein injection when tumors reached 10 mm in diameter. Fluorescence imaging was performed using the Maestro In Vivo Imaging system (Perkin-Elmer). Multispectral images were unmixed into their component spectra (PSMA probes, autofluorescence, and background) to quantitate the average fluorescence intensity associated with the tumors using regions of interest (ROIs) around the tumors.

The nature of data set [6]: In vitro cytotoxicity assay (CCK-8), PC3pip. The following applies: 72 hours incubation. In kind it is cell-based, human. As for the experimental part:
as §1

Data set [7] is described as follows: In vitro cytotoxicity assay (CCK-8), PC3flu. In kind it is cell-based, human. The following applies: 72 hours incubation, CCK-8; read-out: IC50 cytotoxicity, PC3flu cells. The method, then:
as §1

A short description of data set [8]: Maximum tolerated dose (MTD). In kind it is in vivo, mice. An excerpt: Mice were monitored daily for 14 days.
Data set [9] has as its system heterotopic PC3pip tumors. Description: Heterotopic survival study. In kind it is in vivo, mice. An excerpt:
Male athymic nude mice were implanted subcutaneously with 1×10^6 of PC3pip cells under the right dorsum of the mice. When tumor size reached approximately 100 mm^3 (tumor volume=Length×width^2/2), mice received drugs through tail vein injection. […] Animals were weighed and tumor size measured every other day for 90 days. Cures were defined as no tumor present at end of the 90-day study. When tumors became too large or animals were moribund they were euthanized. Five mice were used in each group.

Another data set relates to orthotopic PC3pip tumors. The experiment in a line: Orthotopic survival study. In kind it is in vivo, mice. To be noted: 3860 nmol/kg, five mice per group. The method, then: Surgical orthotopic tumor implantation was performed as previously reported. Tumor growth/size was monitored using Siemens Acuson S2000 ultrasound scanner. When the tumors were at the appropriate size (5 mm as measured by ultrasound, approximately 2 weeks) animals were given PSMA-1-VcMMAE, PSMA-1-VcMMAE-Cy5.5, or PBS every four days with a total of 5 doses. Tumors were monitored every other day by ultrasound. Each group had five mice.

Data set [10] has as its system metastatic PC3pip model (GFP labeled PC3pip cells). The experiment in a line: Metastatic survival study. In kind it is in vivo, mice. The method, then:
Male athymic nude mice were injected into the left ventricle of the heart with 1×10^5 GFP labeled PC3pip cells to generate bone metastasis. One week later mice received 160 nmol/kg PSMA-1-VcMMAE-Cy5.5 or PBS every 4 days with a total of 5 doses and the progression of disease was monitored by GFP imaging. Five mice were used in each group.

In data set [11] the target is T2, PSMA (Homo sapiens, UniProt Q04609).
T2 construct: expressed in transfected cells; host or cells: PC3pip cells (PC3 retrovirally transduced with PSMA), from Dr. Michel Sadelain, MSKCC
T2 sequence (Q04609 whole entry): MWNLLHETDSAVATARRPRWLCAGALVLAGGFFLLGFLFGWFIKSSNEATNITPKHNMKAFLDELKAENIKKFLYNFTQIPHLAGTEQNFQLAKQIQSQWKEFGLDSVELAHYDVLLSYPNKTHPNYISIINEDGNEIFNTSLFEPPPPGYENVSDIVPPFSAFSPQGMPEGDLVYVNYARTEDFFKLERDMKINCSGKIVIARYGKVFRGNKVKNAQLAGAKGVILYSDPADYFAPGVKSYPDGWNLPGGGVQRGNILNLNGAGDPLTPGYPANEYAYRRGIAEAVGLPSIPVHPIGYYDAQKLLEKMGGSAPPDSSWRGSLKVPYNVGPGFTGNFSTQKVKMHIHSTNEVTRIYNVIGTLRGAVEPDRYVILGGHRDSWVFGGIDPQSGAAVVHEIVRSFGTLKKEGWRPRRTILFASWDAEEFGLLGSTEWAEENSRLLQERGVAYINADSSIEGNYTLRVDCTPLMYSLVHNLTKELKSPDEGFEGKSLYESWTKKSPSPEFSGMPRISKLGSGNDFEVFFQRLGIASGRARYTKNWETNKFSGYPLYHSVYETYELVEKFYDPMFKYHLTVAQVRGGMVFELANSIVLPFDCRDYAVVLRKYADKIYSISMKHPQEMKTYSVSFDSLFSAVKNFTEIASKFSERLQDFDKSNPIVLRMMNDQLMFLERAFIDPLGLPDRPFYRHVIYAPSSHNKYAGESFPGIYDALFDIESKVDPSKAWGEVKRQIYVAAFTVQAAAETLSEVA
The experiment in a line: Competitive binding assay (3H-ZJ24 displacement), Example 1. To be noted: PC3pip cells, 10 nM 3H-ZJ24; read-out: IC50, concentration required to inhibit 50% of binding.
Description: The assay was carried as previously reported by incubation PC3pip cells with different concentrations of drug conjugates in the presence of 10 nM N—[N—[(S)-1,3-dicarboxypropyl]carbamoyl]-S-[^3H]-methyl-L-cysteine (^3H-ZJ24) (GE Healthcare Life Sciences, Pittsburgh, PA). Radioactivity of cell pellet was counted by scintillation counter.

Data set [12] addresses T2, PSMA. Description: Competition binding studies, Example 2. To be noted: PC3pip cells, 12 nM 3H-ZJ24, 1 h, 37° C.; read-out: IC50, concentration required to inhibit 50% of the binding. The method, then: PC3pip cells ([…]) was suspended in 200 μL of 50 mM Tris buffer, pH 7.5. The cells were incubated at 37° C. with different concentrations of PSMA-1-MMAE-IR700 or ZJ24 in the presence of 12 nM of 3H-ZJ24 for 1 h. The cells were then washed 3 times with cold PBS and cell-associated radioactivity was measured by scintillation counting. The concentration required to inhibit 50% of the binding (IC50) was determined by GraphPad Prism 3.0. Studies were performed in triplicate.

SMILES strings stand for the structures. Numbered stars: 1 amine (or outer) side, 2 acyl side, 3 side chain; on linkers, the order of the positions; unused ones are H or OH. Bridge positions count the residues as written; N and C are the ends. Square brackets hold non-standard residues; d marks the D form. Peptide text beside a SMILES is read from it. I, II: the chains in the order shown. * marks the point of attachment. Dolaproine = CO[C@@H]([C@@H]1CCCN1)[C@@H](C)C(=O)O; Dil = CC[C@H](C)[C@H](NC)[C@@H](CC(=O)O)OC; X2 = O=C1CC([*:2])C(=O)N1CCCCCC(=O)[*:1]; γGlu = O=C(O)[C@H](CCC(=O)[*:2])N[*:1]; PABC = O=C(OCc1ccc(N[*:1])cc1)[*:2]; X1 = C[C@@H](N*)[C@@H](O)c1ccccc1; Trx = NC[C@H]1CC[C@H](C(=O)O)CC1; Cit = NC(=O)NCCC[C@H](N)C(=O)O; NMeV = CN[C@H](C(=O)O)C(C)C; CO = O=C([*:1])[*:2]; Ahx = NCCCCCC(=O)O

With `CC[C@H](C)[C@@H]([C@@H](CC(=O)N1CCC[C@H]1[C@H](OC)[C@@H](C)C(=O)N[C@H](C)[C@@H](O)c1ccccc1)OC)N(C)C(=O)[C@@H](NC(=O)[C@H](C(C)C)N(C)C(=O)CCCCCN1C(=O)CC(SC[C@H](NC(=O)[C@H](CCC(=O)O)NC(=O)[C@H](CCC(=O)O)NC(=O)[C@H](CCC(=O)O)NC(=O)CCCCCNC(=O)[C@H]2CC[C@H](CNC(=O)CC[C@H](NC(=O)N[C@@H](CCC(=O)O)C(=O)O)C(=O)O)CC2)C(=O)NCCCCCC(=O)N[C@@H](CCCCNC(=O)CCCCC[N+]2=C(/C=C/C=C/C=C3/N(C)c4ccc5ccccc5c4C3(C)C)C(C)(C)c3c2ccc2ccccc32)C(N)=O)C1=O)C(C)C` (some centres unmarked) [PSMA-1-McMMAE-Cy5.5], at human liver cathepsin B, the “cleavage by cathepsin B” value is recorded as “remained intact”. The “stability when incubated with PBS” value in data set [1] is reported as “stable”. Moreover, the “IC50 cytotoxicity, PC3pip cells” value in [2] (72 hours incubation, CCK-8) is “no IC50 values could be obtained”. In addition, the “IC50 cytotoxicity, PC3flu cells” value in [3] (72 hours incubation, CCK-8) is given as “no IC50 values could be obtained”. The “cellular binding and uptake, competition with PSMA-1 ligand” value in data set [4] is “selective and specific for the PSMA receptor”. Besides, the “disruption of α-tubulin network” value in [5] is reported as “no obvious disruption of tubulin”. Further, the “time of peak uptake in PC3pip tumors” value in the data set with PC3pip and PC3flu tumors was found to be 24 h.
For the molecule `CC[C@H](C)[C@@H]([C@@H](CC(=O)N1CCC[C@H]1[C@H](OC)[C@@H](C)C(=O)N[C@H](C)[C@@H](O)c1ccccc1)OC)N(C)C(=O)[C@@H](NC(=O)[C@H](C(C)C)N(C)C(=O)OCc1ccc(NC(=O)[C@H](CCCNC(N)=O)NC(=O)[C@@H](NC(=O)CCCCCN2C(=O)CC(SC[C@H](NC(=O)[C@H](CCC(=O)O)NC(=O)[C@H](CCC(=O)O)NC(=O)[C@H](CCC(=O)O)NC(=O)CCCCCNC(=O)[C@H]3CC[C@H](CNC(=O)CC[C@H](NC(=O)N[C@@H](CCC(=O)O)C(=O)O)C(=O)O)CC3)C(=O)NCCCCCC(=O)N[C@@H](CCCCN)C(N)=O)C2=O)C(C)C)cc1)C(C)C` (stereo partly drawn) [PSMA-1-VcMMAE] (I: V[Cit][PABC][NMeV]V[Dil][Dolaproine]-X1 / II: {Glu-CO-γGlu-Trx-Ahx}-EEEC[Ahx]K-NH2; linker I:N-II:4 via X2), the IC50 in data set [6] (CCK-8, read-out: IC50 cytotoxicity, PC3pip cells) is 4.64 nM; in data set [7] it was 222 nM. Moreover, in data set [6] (read-out: selectivity, differential cytotoxicity between PC3pip and PC3flu cells), the selectivity ratio was 48. Further, the “ratio of IC50's between PC3pip and PC3flu cells” value in data set [2] (72 hours incubation) came out at 48.2. The “effect of protease inhibitor E64 on cell killing” value in data set [2] (co-incubation with 50 μM E64) was “susceptible to E64 protease inhibition”. In addition, in data set [2] (versus PSMA-1-VcMMAE-Cy5.5), the “increase of IC50 on removal of the Cy5.5 moiety, PC3pip cells” value is 6.2 fold. In [3] (versus PSMA-1-VcMMAE-Cy5.5), the “increase of IC50 on removal of the Cy5.5 moiety, PC3flu cells” value amounted to 11.1 fold. Also, in [8] (MTD / lowest effective dose), the “therapeutic index (TI)” value amounted to 40. For the same molecule, the MTD in [8] (mouse, in vivo, iv, single dose i.v., tumor-free athymic nude mice) was 7.64 µmol/kg. Moreover, the “MTD relative to MMAE” value in data set [8] (single dose i.v.) is reported as “more than 10 fold”. Also, the “inhibition of PC3pip versus PC3flu tumor growth” value in [9] (955 nmol/kg) is recorded as “significantly more effective at inhibiting PSMA-positive PC3pip tumor growth than PSMA-negative PC3flu tumor growth”. The “cure (tumor free at 90 days)” value in data set [9] (3820 nmol/kg i.v. every 4 days, 5 doses) turned out to be 60%. In data set [9] (dosing every 7 days), the “tumor growth when given every 7 days” value is “greatly inhibited tumor growth”. Also, the body weight loss result in data set [9] (even at the highest dose tested (3820 nmol/kg)) is “No body weight loss”. Besides, the “dose at which tumor growth inhibition starts” value in data set [9] (mouse, in vivo) was 191 nmol/kg. This molecule returned a tumor free mice with orthotopic PC3pip tumors of 1. For the same molecule, in data set [10], the “effect on survival and body weight, words” value is “prolong animal survival time with no body weight loss”.
`NCCCC[C@H](NC(=O)N[C@@H](CCC(=O)O)C(=O)O)C(=O)O` [ZJ24, (S)-2-(3-((S)-5-amino-1-carboxypentyl)-ureido)pentanedioic acid, reference compound]: the values for the IC50 at PSMA [11] and on PSMA [12] were 11.7 nM and 10.7 ± 0.89 nM, respectively.

Broadly, the MTD is the largest dose that counted as tolerated.
